This is an account of results in PubChem BioAssay (NCI).

Several values for one entry are separate records, joined by “and”; a condition that tells them apart may be missing. Equal values may be shown once.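 1) Cells in 96-well plates. 2) Compound, 48 h, 5 concentrations. 3) Linear interpolation between surrounding doses. 4) Unreached endpoint = highest concentration. GI50 marks 50% less growth. TGI is the concentration that stops growth completely.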

The subject of one assay is M14 melanoma. The assay is described as follows: NCI-60 cell line screen, 48 h.
In turn, `COc1cc(OC(=O)c2ccccc2)cc2c1C(=O)C=CC2=O` had a TGI of 32.5 µM.

Consider `CC/C=C1/C(=O)C=C[C@@H]1C/C=C\CCCC(=O)OC`, for which the GI50 is 2.8 µM and the TGI is 10.8 µM.

Regarding `CCN(CC)CCCCNc1c2ccccc2[n+](C)c2c1[nH]c1ccccc12`, the GI50 was 1.41 µM and the TGI worked out at 4.64 µM.

Take `COc1ccc(C(=O)c2cc(OC)c(OC)c(OC)c2)cc1OC(=O)CCl`: the GI50 is under 0.0142 µM.

For `COc1ccc(/C(COc2ccc3c(=O)cc(-c4ccccc4)oc3c2)=N\O)cc1`, the GI50 is 29.1 µM and the TGI is over 50 µM.

On to `CC(C)(C)OC(=O)N1CCN(CCn2cc(C(F)(F)F)c3c(Cl)ncnc32)CC1`, for which the GI50 is 1.77 µM and the TGI worked out at 3.49 µM.

Consider `Cc1ccc(Nc2n[nH]c(=S)s2)cc1C`, for which the TGI is over 100 µM.

`CN(C)CCN1C(=O)c2ccccc2N(C)c2ccccc21`: the GI50 was over 100 µM and the TGI is over 100 µM.

In another assay the test system is SK-MEL-28 melanoma. Briefly: NCI-60 cell line screen, 48 h.
On to `COc1c(C)c2c(c(O)c1C/C=C(\C)CCC(=O)O)C(=O)OC2`, for which the GI50 was 0.38 µM and the TGI was over 100 µM.

With `Cc1cc(O)c(C(C)C)cc1S(=O)(=O)O` (tested in a mixture with another compound), the GI50 was 0.634 µM.

For the compound `COc1cc(C[C@H]2c3cc(OC)c(OC)cc3CCN2C)c(Oc2cc3c(cc2OC)-c2c(OC)c(OC)cc4c2[C@H](C3)N(C)CC4)cc1OC`, the GI50 was 2.94 µM; the TGI is 9.03 µM and 8.73 µM.

As to `COc1cc(C(=O)O[C@H](C(=O)NCCCCCNC(=O)[C@@H](OC(=O)c2cc(OC)cc3c(C)cccc23)[C@]2(C)CO2)[C@]2(C)CO2)c2cccc(C)c2c1`, the GI50 was 0.205 µM.

As to `COc1cc2ccc(/C=C\[N+](=O)[O-])cc2cc1OC`, the TGI amounted to 7.51 µM.

`COC(=O)C1(C)CCC(c2ccc(C)cc2)=C(CC(=O)O)C1` (stereo not drawn): the TGI was over 100 µM.

Take `CCN(CC)CCCC(C)Nc1ccnc2cc(Oc3ccccc3)ccc12` (stereo not drawn): the GI50 is 1.73 µM and 1.99 µM; the TGI is 3.22 µM and 3.65 µM.

On to `COc1cc([C@@H]2OC[C@@H]3C(c4cc(OC)c5c(c4)OCO5)OC[C@@H]32)cc(OC)c1OC` (stereo partly drawn), for which the TGI was over 100 µM.

On to `C=C1CCC2C3(C)COC(c4ccc(N(C)C)cc4)OC3CCC2(C)C1C/C=C1/C(=O)OCC1O` (stereo not drawn), for which the GI50 was 2.34 µM and the TGI came to 5.4 µM.

The compound `COc1cc(OC(=O)c2ccccc2)cc2c1C(=O)C=CC2=O` yielded a TGI of 34.5 µM.

Consider `CC/C=C1/C(=O)C=C[C@@H]1C/C=C\CCCC(=O)OC`, for which the GI50 is 2.52 µM and the TGI turned out to be 6.27 µM.

On to `CCN(CC)CCCCNc1c2ccccc2[n+](C)c2c1[nH]c1ccccc12`, for which the GI50 was 0.201 µM and the TGI is 0.539 µM.

As to `COc1ccc(C(=O)c2cc(OC)c(OC)c(OC)c2)cc1OC(=O)CCl`, the GI50 is 0.358 µM and the TGI is over 100 µM.

Take `COc1ccc(/C(COc2ccc3c(=O)cc(-c4ccccc4)oc3c2)=N\O)cc1`: the GI50 is 19.5 µM and the TGI is over 41.9 µM.

For the compound `CC(C)(C)OC(=O)N1CCN(CCn2cc(C(F)(F)F)c3c(Cl)ncnc32)CC1`, the GI50 was 1.74 µM and the TGI was found to be 3.25 µM.

In the case of `Cc1ccc(Nc2n[nH]c(=S)s2)cc1C`, the TGI was over 100 µM.

`CN(C)CCN1C(=O)c2ccccc2N(C)c2ccccc21`: the GI50 is over 100 µM and the TGI was over 100 µM.

In a further assay the test system is NCI-H522 lung. Briefly: NCI-60 cell line screen, 48 h.
On to `COc1c(C)c2c(c(O)c1C/C=C(\C)CCC(=O)O)C(=O)OC2`, for which the GI50 is 0.262 µM and the TGI is over 100 µM.

`Cc1cc(O)c(C(C)C)cc1S(=O)(=O)O` (tested in a mixture with another compound): the GI50 was 0.238 µM.

Regarding `COc1cc(C[C@H]2c3cc(OC)c(OC)cc3CCN2C)c(Oc2cc3c(cc2OC)-c2c(OC)c(OC)cc4c2[C@H](C3)N(C)CC4)cc1OC`, the GI50 was 5.13 µM; the TGI is 16.2 µM and 17 µM.

On to `COc1cc(C(=O)O[C@H](C(=O)NCCCCCNC(=O)[C@@H](OC(=O)c2cc(OC)cc3c(C)cccc23)[C@]2(C)CO2)[C@]2(C)CO2)c2cccc(C)c2c1`, for which the GI50 is 0.565 µM and the TGI was over 22.3 µM.

`COc1cc2ccc(/C=C\[N+](=O)[O-])cc2cc1OC` displayed a TGI of 3.4 µM.

The compound `COC(=O)C1(C)CCC(c2ccc(C)cc2)=C(CC(=O)O)C1` (stereo not drawn) displayed a TGI of over 100 µM.

Consider `CCN(CC)CCCC(C)Nc1ccnc2cc(Oc3ccccc3)ccc12` (stereo not drawn), for which the GI50 was 3.06 µM and 3.77 µM; the TGI was 13 µM and 17 µM.

For the compound `COc1cc([C@@H]2OC[C@@H]3C(c4cc(OC)c5c(c4)OCO5)OC[C@@H]32)cc(OC)c1OC` (stereo partly drawn), the TGI is over 100 µM.

In the case of `C=C1CCC2C3(C)COC(c4ccc(N(C)C)cc4)OC3CCC2(C)C1C/C=C1/C(=O)OCC1O` (stereo not drawn), the GI50 is 3.22 µM and the TGI stood at 14 µM.

`COc1cc(OC(=O)c2ccccc2)cc2c1C(=O)C=CC2=O` showed a TGI of 12.4 µM.

Regarding `CC/C=C1/C(=O)C=C[C@@H]1C/C=C\CCCC(=O)OC`, the GI50 was 1.56 µM and the TGI is 3.57 µM.

For `CCN(CC)CCCCNc1c2ccccc2[n+](C)c2c1[nH]c1ccccc12`, the GI50 is 0.0796 µM and the TGI stood at 0.217 µM.

`COc1ccc(C(=O)c2cc(OC)c(OC)c(OC)c2)cc1OC(=O)CCl`: the GI50 is 0.0196 µM and the TGI is over 100 µM.

Take `COc1ccc(/C(COc2ccc3c(=O)cc(-c4ccccc4)oc3c2)=N\O)cc1`: the GI50 was 7.32 µM and the TGI stood at 26.6 µM.

Consider `CC(C)(C)OC(=O)N1CCN(CCn2cc(C(F)(F)F)c3c(Cl)ncnc32)CC1`, for which the GI50 is 15.1 µM and the TGI stood at 29.9 µM.

`Cc1ccc(Nc2n[nH]c(=S)s2)cc1C` had a TGI of over 100 µM.

For `CN(C)CCN1C(=O)c2ccccc2N(C)c2ccccc21`, the GI50 is over 100 µM and the TGI is over 100 µM.
